Literature values, collected in patent US20220160649A1, “PHARMACEUTICAL COMPOSITION” (priority 2019, published 2022).

Conditions: stated as well known

In the case of Oc1ccc(/C=C/c2cc(O)cc(O)c2)cc1 [resveratrol (IIIA), resveratrol], the solubility in water is given as “almost insoluble”.
